Test results as given in patent US5840918A, “Isoprenyl transferase inhibitors” (Eisai Co., Ltd., priority 1997, dated 1998).

How the values were obtained:
FTase = biological target: T1, FTase (Bos taurus, UniProt P29702+P49355); assay: Inhibition of FTase-mediated prenylation (in vitro prenylation assay); format: biochemical; conditions: Table 1; partially purified FTase, 3 μM recombinant H-ras, 440 nM [3H]FPP, 15 min 37° C
T1 construct: bovine brain by inference from the cited Moores et al. 1991
Source text: (§1) Nanomolar concentrations of the indicated compounds were sufficient to inhibit farnesylation of ras proteins in vitro. For screening candidate compounds useful for the treatment of ras-associated tumors, the FTase assay is preferred. […] Substitutions which confer GGTase specificity as taught herein also produced potent inhibitors of GGTase.

[1] = tested on: H-ras farnesylation in H-ras (61L) transformed NIH3T3 fibroblasts; assay: Inhibition of H-ras farnesylation in whole cells (Western blot); format: cell-based, mouse
Protocol: The ability of compounds of the invention to inhibit H-ras farnesylation and rap1 geranylgeranylation in whole cells was determined. H-ras (61L) transformed NIH3T3 fibroblasts were generously provided by C. Der, Univ. N. Carolina. These fibroblasts were treated for 24 h with 50 μM lovastatin (control) or the indicated concentrations of inhibitor. The cells were lysed in 1% NP-40, 5 mM Tris-HCl (pH 8.0), 5 mM EDTA, 0.1 mM N-tosyl-L-phenylalanine chloromethyl ketone, 0.1 mM N-tosyl-L-lysine chloromethyl ketone, and 1 mM phenylmethylsulfonyl fluoride. The lysate was centrifuged (15000×g, 5 min.) and the supernatant was used as a cell extract. […] After transfer to IMMOBILON P™ membrane (Millipore), the blots were probed with LA069 mouse monoclonal antibody to H-ras (Quality Biotech), or rabbit polyclonal antibody to rap1/Krev (Santa Cruz Biotechnology). All Western blots were developed using ECL chemiluminescent reagents (Amersham).

GGTase = assay: Inhibition of GGTase-mediated prenylation (in vitro prenylation assay); format: biochemical; conditions: Table 1; partially purified GGTase, 5 μM recombinant H-ras (61L, CAIL), 1 μM [3H] geranylgeranyl diphosphate
Source text: as §1

[2] = Mus musculus, NIH3T3, 24 h, Table 2

Compound | IC50 (FTase) [µM] | IC50 (GGTase) [µM] | IC50 [1, 2] [µM] | IC50 ([1]; Mus musculus, NIH3T3, Table 2, 24 h) [µM] | IC50 ([1]; Table 2, 24 h) [µM]
CSCCC(NC(=O)C(/C=C\[C@@H](/C=C/C1CSC(C)(C)N1)C(C)C)Cc1ccccc1)C(=O)O (stereo partly drawn) [PD321] | 0.025 | 0.014 | 0.1 to 1 | – | –
CSCC[C@H](NC(=O)C(/C=C/[C@H](C)/C=C/C(N)CS)Cc1ccccc1)C(=O)O (stereo partly drawn) [PD441] | 0.026 | 0.17 | 4.2 | – | –
CC(C)C(/C=C/[C@@H](/C=C/C(N)CS)C(C)C)C(=O)N[C@@H](CCC(N)=O)C(=O)O (stereo partly drawn) [PD022] | 0.0052 | 3.06 | 0.4 | – | –
CSCC[C@H](NC(=O)C(NC[C@@H](/C=C/C(N)CS)C(C)C)C(C)C)C(=O)O (stereo partly drawn) [PA061] | 0.0021 | 0.048 | 0.58 | – | –
CSCC[C@H](NC(=O)C(/C=C/[C@@H](/C=C/C(N)CS)C(C)C)C(C)C)C(=O)NCc1ccccn1 (stereo partly drawn) [PD192] | 0.296 | 2.99 | 0.18 | – | –
CSCCC(NC(=O)C(C=CC(C=CC(N)CSSCC(N)C=CC(C=CC(Cc1ccccc1)C(=O)NC(CCSC)C(=O)O)C(C)C)C(C)C)Cc1ccccc1)C(=O)O (stereo not drawn) [PD212] | 0.003 | 0.0045 | 0.11 | – | –
CC(C)[C@H](/C=C/C(N)CS)CN(C)C(Cc1cccs1)C(=O)N[C@@H](CCS(C)(=O)=O)C(=O)O (stereo partly drawn) [PA121] | 0.015 | 0.38 | 0.58 | – | –
CCOC(=O)C(CCSC)NC(=O)C(C=CC(C=CC(N)CS)Cc1ccccc1)C(C)C (stereo not drawn) [PD421] | 0.57 | 3.4 | 1.9 | – | –
CSCC[C@H](NC(=O)C(/C=C/C(/C=C/CCS)C(C)C)Cc1ccccc1)C(=O)O (stereo partly drawn) [PD162] | 0.26 | 4.57 | 326 | – | –
CSCC[C@H](NC(=O)C(/C=C/[C@@H](/C=C/C(N)CS)C(C)C)C(C)C)C(=O)N1CCOCC1 (stereo partly drawn) [PD032] | 0.45 | 2.86 | 1.95 | – | –
CC(C)[C@H](/C=C/C(N)CS)CNC(Cc1cccs1)C(=O)N[C@@H](CCS(C)(=O)=O)C(=O)O (stereo partly drawn) [PA111] | 0.013 | 0.27 | – | 0.13 | –
CSCC[C@H](NC(=O)C(Cc1cccs1)NC[C@@H](/C=C/C(N)CS)C(C)C)C(=O)O (stereo partly drawn) [PA031] | 0.0036 | 0.215 | 1 | – | –
COC(=O)[C@H](CCSC)NC(=O)C(NC[C@@H](/C=C/C(N)CS)C(C)C)C(C)C (stereo partly drawn) [PA101] | 0.17 | 1.3 | 0.24 | – | –
CC(C)C(/C=C/[C@@H](/C=C/C(N)CS)C(C)C)C(=O)N[C@@H](CO)C(=O)O (stereo partly drawn) [PD202] | 0.017 | 1.12 | 1.95 | – | –
CSCC[C@H](NC(=O)C(/C=C/[C@@H](/C=C/C(N)CS)C(C)C)C(C)C)C(=O)N(C)Cc1ccccn1 (stereo partly drawn) [PD072] | 0.042 | 0.68 | 7.4 | – | –
CC[C@H](C)[C@H](NC[C@@H](/C=C/C(N)CS)C(C)C)C(=O)N[C@@H](CCSC)C(=O)O (stereo partly drawn) [PA051] | 0.02 | 0.076 | 1.9 | – | –
CSCC[C@H](NC(=O)C(/C=C\[C@@H](/C=C/C(N)CS)C(C)C)Cc1ccccc1)C(=O)O (stereo partly drawn) [PD401] | 0.028 | 1.4 | 0.1 to 1 | – | –
CC[C@H](C)[C@H](NC[C@@H](/C=C/C(N)CS)C(C)C)C(=O)N[C@@H](CCSC)C(=O)OC (stereo partly drawn) [PA141] | 0.095 | 0.88 | 0.017 | – | –
COC(=O)[C@H](CCSC)N(C)C(=O)C(/C=C\[C@@H](/C=C/C(N)CS)C(C)C)Cc1ccccc1 (stereo partly drawn) [PD451] | 0.146 | 1.11 | 0.4 | – | –
CSCC[C@H](NC(=O)C(Cc1ccccc1)NC[C@@H](/C=C/C(N)CS)C(C)C)C(=O)O (stereo partly drawn) [PA041] | 0.0025 | 0.056 | 3.5 | – | –
CSCC[C@H](NC(=O)C(/C=C/[C@@H](/C=C/C(N)CS)C(C)(C)C)C(C)C)C(=O)O (stereo partly drawn) [PD142] | 0.042 | 2.12 | 7.3 | – | –
CC(C)C(/C=C/[C@@H](/C=C/C(N)CS)C(C)C)C(=O)N[C@@H](CCS(C)(=O)=O)C(=O)O (stereo partly drawn) [PD172] | 0.007 | 0.75 | 13.1 | – | –
COC(=O)[C@H](CCS(C)(=O)=O)NC(=O)C(Cc1cccs1)N(C)C[C@@H](/C=C/C(N)CS)C(C)C (stereo partly drawn) [PA021] | 0.028 | 7.1 | 0.08 | – | –
CC(C)C(/C=C/[C@@H](/C=C/C(N)CS)C(C)C)C(=O)N[C@H]1CCOC1=O (stereo partly drawn) [PD092] | 0.052 | 3.2 | 0.78 | – | –
CSCC[C@H](NC(=O)C(Cc1cccs1)N(C)C[C@@H](/C=C/C(N)CS)C(C)C)C(=O)O (stereo partly drawn) [PA071] | 0.022 | 0.5 | 3.1 | – | –
C[C@H](/C=C/C(N)CS)/C=C/C(Cc1ccccc1)C(=O)N[C@@H](CCC(N)=O)C(=O)O (stereo partly drawn) [PD062] | 0.2 | 1.76 | – | – | 21

Second part, led by results:

IC50 (FTase) [µM] | IC50 (GGTase) [µM] | Compound | IC50 [1, 2] [µM] | IC50 ([1]; Mus musculus, NIH3T3, Table 2, 24 h) [µM] | IC50 ([1]; Table 2, 24 h) [µM]
0.027 | 0.16 | CSCCC(NC(=O)C(Cc1ccccc1)OCC(C=CC(N)CSSCC(N)C=CC(COC(Cc1ccccc1)C(=O)NC(CCSC)C(=O)O)C(C)C)C(C)C)C(=O)O (stereo not drawn) [PE041] | 0.19 | – | –
0.017 | 0.075 | CSCC[C@H](NC(=O)c1cc(C/C=C/C(N)CS)ccc1-c1ccsc1)C(=O)O (stereo partly drawn) [PM021] | 2.1 | – | –
0.0018 | 0.12 | CSCC[C@H](NC(=O)c1cc(CCCC(N)CS)ccc1-c1ccsc1)C(=O)O (stereo partly drawn) [PM162] | 13.1 | – | –
0.002 | 0.52 | C=Cc1ccc(C/C=C/C(N)CS)cc1C(=O)N[C@@H](CCSC)C(=O)O (stereo partly drawn) [PM012] | 2.7 | – | –
0.009 | 0.092 | CSCC[C@H](NC(=O)C(Cc1ccccc1)OC[C@@H](/C=C/C(N)CS)C(C)C)C(=O)O (stereo partly drawn) [PE021] | 0.28 | – | –
0.71 | 0.95 | CSCC[C@H](NC(=O)c1cc(C/C=C/C(N)CS)ccc1-c1ccc(C(F)(F)F)cc1)C(=O)O (stereo partly drawn) [PM071] | > 100 | – | –
0.119 | 1.63 | COC(=O)[C@H](CCSC)NC(=O)c1cc(CCCC(N)CS)ccc1-c1ccsc1 (stereo partly drawn) [PM132] | 1.6 | – | –
0.29 | 2.3 | COC(=O)C(CCSC)NC(=O)C(Cc1ccccc1)OCC(C=CC(N)CSSCC(N)C=CC(COC(Cc1ccccc1)C(=O)NC(CCSC)C(=O)OC)C(C)C)C(C)C (stereo not drawn) [PE051] | 0.11 | – | –
0.024 | 0.246 | CSCC[C@H](NC(=O)c1cc(C/C=C/C(N)CS)ccc1-c1cccc(C(F)(F)F)c1)C(=O)O (stereo partly drawn) [PM111] | > 100 | – | –
0.605 | 0.0024 | CC(C)C[C@H](NC(=O)c1cc(C/C=C/C(N)CS)ccc1-c1ccccc1)C(=O)O (stereo partly drawn) [PM131] | > 250 | – | –
0.28 | 3.79 | COC(=O)[C@H](CCSC)NC(=O)c1cc(C/C=C/C(N)CS)ccc1-c1ccsc1 (stereo partly drawn) [PM192] | 0.23 | – | –
0.093 | 6.59 | COC(=O)[C@H](CCS(C)(=O)=O)NC(=O)c1cc(CCC[C@@H](N)CS)ccc1-c1ccsc1 [PM032] | 19.5 | – | –
0.017 | 0.52 | CSCC[C@H](NC(=O)c1cc(C/C=C/C(N)CS)ccc1-c1cccs1)C(=O)O (stereo partly drawn) [PM182] | 2.7 | – | –
0.06 | 6.3 | COC(=O)[C@H](CCS(C)(=O)=O)NC(=O)C(Cc1ccccc1)OC[C@@H](/C=C/C(N)CS)C(C)C (stereo partly drawn) [PE061] | 1.1 | – | –
0.056 | 0.123 | NC(/C=C/Cc1ccc(-c2ccccc2)c(C(=O)N[C@@H](Cc2ccccc2)C(=O)O)c1)CS (stereo partly drawn) [PM172] | > 100 | – | –
0.022 | 1.72 | CSCC[C@H](NCc1cc(C/C=C/C(N)CS)ccc1-c1ccccc1)C(=O)O (stereo partly drawn) [PM121] | 23.4 | – | –
0.215 | 3.5 | COC(=O)[C@H](Cc1cccs1)NC(=O)c1cc(C/C=C/C(N)CS)ccc1-c1ccsc1 (stereo partly drawn) [PM092] | 2.7 | – | –
0.056 | 1.84 | CCc1ccc(C/C=C/C(N)CS)cc1C(=O)N[C@@H](CCSC)C(=O)OC (stereo partly drawn) [PM212] | 0.045 | – | –
0.043 | 1.03 | COC(=O)[C@H](CCSC)NC(=O)C(Cc1ccccc1)OC[C@@H](/C=C/C(N)CS)C(C)C (stereo partly drawn) [PE011] | 0.01 | – | –
0.02 | 0.14 | CC(C)[C@H](/C=C/C(N)CS)COC(Cc1ccccc1)C(=O)N[C@@H](CCS(C)(=O)=O)C(=O)O (stereo partly drawn) [PE031] | 0.33 | – | –
3.1 | 0.32 | CSCC[C@H](NC(=O)c1cc(C/C=C/[C@@H](N)CS)ccc1-c1cc(C(F)(F)F)cc(C(F)(F)F)c1)C(=O)O [PM042] | > 500 | – | –
1.13 | 1.6 | COc1ccc(-c2ccc(C/C=C/[C@@H](N)CS)cc2C(=O)N[C@@H](CCSC)C(=O)O)cc1 [PM011] | > 100 | – | –
0.002 | > 1 | NC(/C=C/Cc1ccc(-c2ccccc2)c(C(=O)N[C@@H](CO)C(=O)O)c1)CS (stereo partly drawn) [PM091] | 474 | – | –
